# Measured values taken from US5428031A, “Methods of treating cardiac arrhythmia” (priority 1993, dated 1995).
# Tests used:
# [1] = test system: conscious dogs; test: electrocardiographic QT interval in conscious dogs, oral; format: in vivo, dog
# Procedure: Trained, female mongrel dogs, in the weight range of 8 to 16 kg and instruimented with chronic arterial access ports, were deprived of food 18 to 24 hours prior to the study. At test time, the dog was placed in an Alice King Chatham nylon mesh sling for light restraint. Four Grass Instrument Co. Type E2 Platinum Subdermal Electrodes were affixed to the limbs of the dog and connected to a Hewlett-Packard 4700A Cardiograph multi-lead electrocardiogram (ECG) recorder. After approximately a 30-minute stabilization period, one or two pretreatment Lead II ECG tracings were taken over approximately a 30-second interval. Dogs were then dosed via gavage with labrafil (vehicle) or test compound. The volume, administered was 2.0 ml/kg followed by a 15 ml tap-water flush. Lead II ECG recordings were obtained at 15, 30, and 60 minutes and every 30 minutes thereafter for five hours post-drug administration. Dogs were also monitored for blood pressure changes via a Modular Instruments data acquisition system and transducer connected to the arterial access port. Final ECG traces were taken at approximately 24 hours post-treatment. Average QT interval lengths were determined for each time point and QTc values were calculated to correct for variations in heart rate (QTc =QT/√R-R).
# [2] = test system: guinea pig ventricular myocytes; test: current-clamp action potential duration (APD90) in isolated myocytes, 0.2 Hz; format: cell-based; conditions: Cavia porcellus, Ventricular myocyte, 4 cells
# Procedure: Guinea pig ventricular myocytes were isolated using a modification of the procedure described by Mitra R and Morad M., "A Uniform Enzymatic Method for Dissociation of Myocytes from Hearts and Stomachs of Nertilorates", Am. J. Physiol. 249:H1056-60 (1985). Excised hearts were perfused through the aorta (retrograde fashion) at a rate of 10 ml/min with oxygenated, warmed (37° C.) solutions described below. The heart was initially perfused for 7 minutes with a Tyrode's solution containing, in mM: 132 NaCl, 4 KCl, 1.2 MgCl2, 10 HEPES (formal name N-2-Hydroxyethylpiperazine-N-2-ethanesulfonic acid), 5 glucose, pH=7.2. The head was then perfused with the same nominally Ca^2+ -free solution containing 150 units/ml Type II collagenase (Worthington) and 0.5 units/ml Type XIV protease (Sigma) for 8 minutes. This perfusate was followed by a Tyrode's solution containing 0.2 mM CaCl2 (without enzymes) for 5 minutes. The digested ventricles were cut into small pieces and gently shaken until cells were visibly dispersed. […]
# The suction microelectrode technique described by Giles, W. R. and Shibata, E. F., "Voltage clamp of bull-frog cardiac pacemaker cells: a quantitative, analysis of potassium currents". […]
# To record action potentials, single cells were bathed in 1.8 mM Ca^2+ -Tyrode's solution. […] Data were analyzed as percent (%) change in action potential duration at 90% of repolarization (APD90). […]
# [3] = test system: anesthetized dogs; test: frequency-dependent effects on cardiac (ventricular) refractory period in anesthetized dogs; format: in vivo, dog; conditions: 1.0 mg/kg i.v.
# Procedure: Purpose-bred male or female mongrel dogs (9.8-10.8 kg) were anesthetized with alpha chloralose (80-100 mg/kg i.v.), and the animals were ventilated using a volume-cycled respirator. The right femoral artery and vein were isolated and cannulated for the measurement of systemic arterial pressure and for test agent administration, respectively. A right thoracotomy was performed in the 4th intercostal space, the pericardium incised, and the heart suspended in a pericardial cradle. One stainless steel bipolar plunge electrode was sutured to the ,anterior surface of the right ventricle for the determination of ventricular excitation threshold and refractory periods, while a second stainless steel bipolar plunge electrode was sutured to the right ventricular apex for ventricular pacing. A 21 gauge stainless steel hypodermic needle attached to a 1 ml syringe containing 40% formaldehyde was introduced into the right atrium via a stab wound and purse-string suture. The atrioventricular (AV) node was identified and then chemically ablated with formaldehyde using the method of Steiner and Kovalik (Steiner C. and Kovalik A. T. W., "A simple technique for production of chronic complete heart block in dogs", J. Appl. Physiol. 25: 631-632:, 1968). After the ablation of the AV node, heart rate was controlled and maintained at either 60 or 150 beats/min, as dictated by the experimental protocol, by ventricular apical pacing. Limb electrodes were attached for the continuous recording of Lead II electrocardiogram.
# Ventricular excitation threshold (ET) and relative refractory periods (RRPs) were determined alternately at heart rates of 60 and 150 beats/min using an extrastimulus technique described previously (Wallace A. A. et. al., "Cardiac electrophysiologic and inotropic actions of new and potent methanesulfonanilide Class III antiarrhythmic agents in the anesthetized dog". J. Cardiovasc. Pharmacol. 18: 687-695, 1991). Ventricular excitation threshold was defined as the minimum current required to evoke a propagated response for a ventricular extrastimulus introduced at a coupling interval of 250-300 msec after a basic ventricular apical beat. The ventricular relative refractory period was defined as the longest coupling interval failing to elicit a propagated response for a ventricular extrastimulus introduced with a current intensity of 2× the ventricular excitation threshold. Multiple alternating baseline 60 and 150 beat/min RRPs were measured in each preparation, with two-to-three stable consecutive baseline RRP determinations required prior to administration of the test agent.
# The compound of Example 26 was administered intravenously at a dosage of 1.0 mg/kg over a period of 5 minutes to a group of 5 anesthetized dogs. The compound of Example 26 was infused in a vehicle of 2% cremophor/2% ethanol/96% saline, at a test agent concentration of 0.5 mg/ml. Ventricular RRPs at 60 and 150 beats/min were redetermined immediately, 15 and 30 minutes following the intravenous administration of the compound of Example 26. The frequency-dependence of the activity of the compound of Example 26 was assessed by comparing absolute increases in ventricular RRPs from the final corresponding baseline value determined at slower (60 beat/min) vs faster (150 beat/min) heart rates.
structure (smiles),measurement,setting,value
"Cc1cccc(NC(=O)N[C@@H]2N=C(c3ccccc3)c3ccccc3N(C)C2=O)c1 [Compound 4, (R)-N-(2,3-dihydro-1-methyl-2-oxo-5-phenyl-1H-1,4-benzodiazepin-3-yl)-N'-(3-methylphenyl)urea]",other ECG or cardiovascular effects,[1],no other ECG or cardiovascular effects
same,prolongation of ECG QT interval,[1],dose-related prolongation of ECG QT interval
same,percent increase in APD90 at 5 µM,[2],202%
"CN1C(=O)[C@H](NC(=O)/C=C/c2ccc(Cl)cc2Cl)N=C(c2ccccc2)c2ccccc21 [Example 26, E-(+)-N-[(3R)-2,3-Dihydro-1-methyl-2-oxo-5-phenyl-1H-1,4-benzo-diazepin-3-yl]-3-(2,4-dichlorophenyl)-2-propenamide]",Increase in Ventricular Relative Refractory Period above baseline,"[3]; 60 beat/min, 15 Min",19.2 ± 3.4 ms
same,Increase in Ventricular Relative Refractory Period above baseline,"[3]; 60 beat/min, 30 Min",14.0 ± 2.3 ms
same,Increase in Ventricular Relative Refractory Period above baseline,"[3]; 60 beat/min, Immediate",29.6 ± 4.4 ms
same,Increase in Ventricular Relative Refractory Period above baseline,"[3]; 150 beat/min, 15 Min",15.6 ± 4.1 ms
same,Increase in Ventricular Relative Refractory Period above baseline,"[3]; 150 beat/min, 30 Min",11.4 ± 4.4 ms
same,Increase in Ventricular Relative Refractory Period above baseline,"[3]; 150 beat/min, Immediate",23.2 ± 7.3 ms
same,frequency dependence of increase in ventricular RRP,[3]; 60 and 150 beat/min,Equivalent increases in the ventricular RRPs
